Results taken from patent US11161846B2, “Substituted pyrazolo[4,3-b]pyridines and their use as GluN2B receptor modulators” (JANSSEN PHARMACEUTICA NV, priority 2019, dated 2021).

Molecular target: T1, human GluN1/GluN2B NMDA receptors (Homo sapiens, UniProt Q05586+Q13224)
T1 construct: expressed in transfected cells
Assay: Calcium flux (FLIPR) assay on cloned human NR1/GluN2B ion channels expressed in mammalian cells, standard assay
Assay type: cell-based
Settings: glutamate ~EC40 and 10 μM glycine, stable cell line with Tet-On induced expression
Procedure: Effects of Test Articles on Cloned Human NR1/GluN2B Ion Channels Expressed in Mammalian Cells
NMDA receptors are ion channels that are highly permeable to Ca^2+ ions, rendering it possible to monitor NMDA receptor function using cell-based calcium flux assay. In this assay, co-agonists glutamate and glycine are added to cells heterologously expressing human GluN1/GluN2B NMDA receptors to initiate cellular Ca^2+ influx. The time course of the changes in intracellular calcium is measured using a fluorescent dye and a FLIPR (Fluorometric Imaging Plate Reader) device.
Twenty four hours before measurements, the expression of the NMDA receptors in the stable cell line is induced with Tet-On inducible system in the presence of a non-selective NMDA receptor blocker. On the day of the experiment, cell culture media is carefully washed and the cells are loaded with Calcium 5 Dye Kit (Molecular Devices) in dye loading buffer containing 137 mM NaCl, 4 mM KCl, 2 mM CaCl2, 0.5 mM MgCl2 (standard assay) or 1.5 mM MgCl2 (HTS assay), 10 mM HEPES and 5 mM D-glucose; pH 7.4. After 1 h incubation at the room temperature, the dye is washed away with the assay buffer (137 mM NaCl (standard assay) or 150 mM (HTS assay), 4 mM KCl (standard assay) or 3 mM (HTS assay), 2 mM CaC2, 0.01 mM EDTA, 10 mM HEPES and 5 mM D-glucose; pH 7.4) In the FLIPR TETRA reader, various concentrations of the test compounds are added to the cells for 5 min while fluorescence is monitored to detect potential agonist activity. Next, co-agonists, glutamate and glycine are added for another 5 minutes. The concentration of glutamate corresponding to ˜EC40 (standard assay) or EC40 (HTS assay) is used to maximize the assay's signal window and ability to detect NMDA receptor antagonists and negative allosteric modulators. A saturating concentration (10 μM) of glycine is also present in the assay. A non-selective NMDA receptor antagonist, (+)MK-801 is used as a positive control for antagonist activity. The fluorescent signal in the presence of test compounds is quantified and normalized to the signal defined by the appropriate control wells.

T1 sequence (Q13224 27-1484, other chains not shown): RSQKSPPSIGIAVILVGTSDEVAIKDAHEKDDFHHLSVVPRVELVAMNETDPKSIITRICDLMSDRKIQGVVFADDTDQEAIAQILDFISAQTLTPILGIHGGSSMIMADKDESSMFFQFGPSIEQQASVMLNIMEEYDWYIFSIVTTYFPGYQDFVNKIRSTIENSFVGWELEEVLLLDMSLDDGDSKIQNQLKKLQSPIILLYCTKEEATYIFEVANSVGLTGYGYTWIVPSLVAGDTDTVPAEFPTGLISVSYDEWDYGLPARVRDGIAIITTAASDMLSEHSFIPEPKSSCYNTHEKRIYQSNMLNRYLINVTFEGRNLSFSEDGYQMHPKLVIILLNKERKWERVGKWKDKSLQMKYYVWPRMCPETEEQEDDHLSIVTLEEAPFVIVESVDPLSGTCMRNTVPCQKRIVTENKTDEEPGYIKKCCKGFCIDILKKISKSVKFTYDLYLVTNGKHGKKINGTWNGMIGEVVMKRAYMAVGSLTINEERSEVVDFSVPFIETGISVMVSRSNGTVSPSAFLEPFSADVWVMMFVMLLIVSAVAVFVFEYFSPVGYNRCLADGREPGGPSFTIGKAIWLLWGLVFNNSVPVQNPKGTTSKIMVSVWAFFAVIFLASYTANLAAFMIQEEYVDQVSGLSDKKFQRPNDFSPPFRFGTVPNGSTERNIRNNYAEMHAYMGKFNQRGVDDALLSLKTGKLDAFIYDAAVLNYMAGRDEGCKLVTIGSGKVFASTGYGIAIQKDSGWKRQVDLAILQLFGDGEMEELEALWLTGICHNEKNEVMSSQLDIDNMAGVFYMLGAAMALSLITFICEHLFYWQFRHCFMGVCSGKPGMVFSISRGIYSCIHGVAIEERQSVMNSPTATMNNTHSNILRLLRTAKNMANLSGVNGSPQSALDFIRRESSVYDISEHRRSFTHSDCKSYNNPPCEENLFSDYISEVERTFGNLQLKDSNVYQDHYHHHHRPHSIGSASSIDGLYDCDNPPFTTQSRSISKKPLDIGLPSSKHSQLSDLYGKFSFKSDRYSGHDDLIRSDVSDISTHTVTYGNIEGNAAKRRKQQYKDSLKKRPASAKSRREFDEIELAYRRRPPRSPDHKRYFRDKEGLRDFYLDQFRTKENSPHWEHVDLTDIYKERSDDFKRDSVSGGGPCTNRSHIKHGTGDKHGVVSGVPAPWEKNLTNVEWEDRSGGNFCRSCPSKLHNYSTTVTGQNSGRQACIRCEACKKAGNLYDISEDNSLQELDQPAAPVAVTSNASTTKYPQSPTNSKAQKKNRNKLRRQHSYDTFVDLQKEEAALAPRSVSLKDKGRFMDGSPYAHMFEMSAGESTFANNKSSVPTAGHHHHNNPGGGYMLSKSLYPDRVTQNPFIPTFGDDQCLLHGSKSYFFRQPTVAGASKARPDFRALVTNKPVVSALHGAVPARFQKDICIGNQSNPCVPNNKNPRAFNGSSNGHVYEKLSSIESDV

IC50 | Compound
290 nM | OC(Cn1ncc2ncc(-c3cccc(C(F)(F)F)c3)cc21)C1CC1 (racemic) [Example 100, (RS)-1-Cyclopropyl-2-[6-[3-(trifluoromethyl)phenyl]pyrazolo[4,3-b]pyridin-1-yl]ethanol]
167 nM | Cc1cc(-c2cnc3cnn(CC(O)C4CC4)c3c2)ccc1F (racemic) [Example 101, (RS)-1-Cyclopropyl-2-[6-(4-fluoro-3-methyl-phenyl)pyrazolo[4,3-b]pyridin-1-yl]ethanol]
165 nM | OC(Cn1ncc2ncc(-c3ccc(F)c(C(F)F)c3)cc21)C1CC1 (racemic) [Example 104, (RS)-1-Cyclopropyl-2-(6-(3-(difluoromethyl)-4-fluorophenyl)-1H-pyrazolo[4,3-b]pyridin-1-yl)ethan-1-ol]
93 nM | FC(F)(F)c1cccc(-c2cnc3cnn(CC4CCCO4)c3c2)c1 (racemic) [Example 111, (RS)-1-(Tetrahydrofuran-2-ylmethyl)-6-[3-(trifluoromethyl)phenyl]pyrazolo[4,3-b]pyridine]
113 nM | Fc1ccc(-c2cnc3cnn(CC4CCCO4)c3c2)cc1OC(F)F (racemic) [Example 112, (RS)-6-[3-(Difluoromethoxy)-4-fluoro-phenyl]-1-(tetrahydrofuran-2-ylmethyl)pyrazolo[4,3-b]pyridine]
23 nM | Fc1ccc(-c2cnc3cnn(CC4CCOC4)c3c2)cc1C(F)F (racemic) [Example 113, (RS)-6-[3-(Difluoromethyl)-4-fluoro-phenyl]-1-(tetrahydrofuran-3-ylmethyl)pyrazolo[4,3-b]pyridine]
> 3000 nM | CN1C(=O)CCC1Cn1ncc2ncc(-c3ccc(F)c(OC(F)F)c3)cc21 (racemic) [Example 114, (RS)-5-((6-(3-(Difluoromethoxy)-4-fluorophenyl)-1H-pyrazolo[4,3-b]pyridin-1-yl)methyl)-1-methylpyrrolidin-2-one]
> 3000 nM | CN1C(=O)CCC1Cn1ncc2ncc(-c3ccc(F)c(C(F)F)c3)cc21 (racemic) [Example 115, (RS)-5-[[6-[3-(Difluoromethyl)-4-fluoro-phenyl]pyrazolo[4,3-b]pyridin-1-yl]methyl]-1-methyl-pyrrolidin-2-one]
303 nM | CN1CCC(Cn2ncc3ncc(-c4ccc(F)c(C(F)F)c4)cc32)C1=O (racemic) [Example 116, (RS)-3-[[6-[3-(Difluoromethyl)-4-fluoro-phenyl]pyrazolo[4,3-b]pyridin-1-yl]methyl]-1-methyl-pyrrolidin-2-one]
352 nM | CN1CCC(Cn2ncc3ncc(-c4ccc(F)c(OC(F)F)c4)cc32)C1=O (racemic) [Example 119, (RS)-3-((6-(3-(Difluoromethoxy)-4-fluorophenyl)-1H-pyrazolo[4,3-b]pyridin-1-yl)methyl)-1-methylpyrrolidin-2-one]
89 nM | CN1CC(Cn2ncc3ncc(-c4ccc(F)c(C(F)F)c4)cc32)CC1=O (racemic) [Example 120, (RS)-4-[[6-[3-(Difluoromethyl)-4-fluoro-phenyl]pyrazolo[4,3-b]pyridin-1-yl]methyl]-1-methyl-pyrrolidin-2-one]
2830 nM | CN1C(=O)OCC1Cn1ncc2ncc(-c3ccc(F)c(OC(F)F)c3)cc21 (racemic) [Example 123, (RS)-4-((6-(3-(difluoromethoxy)-4-fluorophenyl)-1H-pyrazolo[4,3-b]pyridin-1-yl)methyl)-3-methyloxazolidin-2-one]
1890 nM | CN1C(=O)OCC1Cn1ncc2ncc(-c3ccc(F)c(C(F)F)c3)cc21 (racemic) [Example 124, (RS)-4-[[6-[3-(Difluoromethyl)-4-fluoro-phenyl]pyrazolo[4,3-b]pyridin-1-yl]methyl]-3-methyl-oxazolidin-2-one]
498 nM | O=C1NCC(Cn2ncc3ncc(-c4ccc(F)c(OC(F)F)c4)cc32)O1 (racemic) [Example 125, (RS)-5-[[6-[3-(Difluoromethoxy)-4-fluoro-phenyl]pyrazolo[4,3-b]pyridin-1-yl]methyl]oxazolidin-2-one]
306 nM | O=C1NCC(Cn2ncc3ncc(-c4ccc(Cl)c(OC(F)F)c4)cc32)O1 (racemic) [Example 126, (RS)-5-[[6-[4-Chloro-3-(difluoromethoxy)phenyl]pyrazolo[4,3-b]pyridin-1-yl]methyl]oxazolidin-2-one]
973 nM | CC(F)(F)c1cc(-c2cnc3cnn(CC4CNC(=O)O4)c3c2)ccc1F (racemic) [Example 127, (RS)-5-[[6-[3-(1,1-Difluoroethyl)-4-fluoro-phenyl]pyrazolo[4,3-b]pyridin-1-yl]methyl]oxazolidin-2-one]

IC50 | Compound
165 nM | CN1CC(Cn2ncc3ncc(-c4ccc(F)c(OC(F)F)c4)cc32)OC1=O (racemic) [Example 128, (RS)-5-((6-(3-(Difluoromethoxy)-4-fluorophenyl)-1H-pyrazolo[4,3-b]pyridin-1-yl)methyl)-3-methyloxazolidin-2-one]
1630 nM | O=C1OC(Cn2ncc3ncc(-c4ccc(F)c(C(F)F)c4)cc32)CN1C1CC1 (racemic) [Example 134, (RS)-3-Cyclopropyl-5-[[6-[3-(difluoromethyl)-4-fluoro-phenyl]pyrazolo[4,3-b]pyridin-1-yl]methyl]oxazolidin-2-one]
29 nM | CC[S+]([O-])Cn1ncc2ncc(-c3ccc(F)c(C(F)F)c3)cc21 (single isomer, unassigned) [Example 84, (S*)-6-(3-(Difluoromethyl)-4-fluorophenyl)-1-((ethylsulfinyl)methyl)-1H-pyrazolo[4,3-b]pyridine]
19 nM | CCC(=O)Cn1ncc2ncc(-c3cc(F)cc(F)c3)cc21 [Example 1, 1-[6-(3,5-Difluorophenyl)pyrazolo[4,3-b]pyridin-1-yl]butan-2-one]
61 nM | CC(C)C(=O)Cn1ncc2ncc(-c3cccc(C(F)(F)F)c3)cc21 [Example 2, 3-Methyl-1-[6-[3-(trifluoromethyl)phenyl]pyrazolo[4,3-b]pyridin-1-yl]butan-2-one]
21 nM | Cc1cc(-c2cnc3cnn(CC(=O)C(C)C)c3c2)ccc1F [Example 7, 1-[6-(4-Fluoro-3-methyl-phenyl)pyrazolo[4,3-b]pyridin-1-yl]-3-methyl-butan-2-one]
30 nM | O=C(Cn1ncc2ncc(-c3cc(F)c(F)c(F)c3)cc21)C1CC1 [Example 9, 1-Cyclopropyl-2-[6-(3,4,5-trifluorophenyl)pyrazolo[4,3-b]pyridin-1-yl]ethanone]
1800 nM | CCS(=O)(=O)Cn1ncc2ncc(-c3ccc(F)c(OC(F)F)c3)cc21 [Example 13, 6-[3-(Difluoromethoxy)-4-fluoro-phenyl]-1-(ethylsulfonylmethyl)pyrazolo[4,3-b]pyridine]
112 nM | O=C(Cn1ncc2ncc(-c3ccc(F)c(C(F)F)c3)cc21)c1ccccn1 [Example 14, 2-[6-[3-(Difluoromethyl)-4-fluoro-phenyl]pyrazolo[4,3-b]pyridin-1-yl]-1-(2-pyridyl)ethanone]
160 nM | O=C(Cn1ncc2ncc(-c3ccc(F)c(C(F)F)c3)cc21)c1ccc(F)cn1 [Example 15, 2-(6-(3-(Difluoromethyl)-4-fluorophenyl)-1H-pyrazolo[4,3-b]pyridin-1-yl)-1-(5-fluoropyridin-2-yl)ethan-1-one]
90 nM | O=C(Cn1ncc2ncc(-c3ccc(F)c(C(F)F)c3)cc21)c1cccnc1 [Example 16, 2-(6-(3-(Difluoromethyl)-4-fluorophenyl)-1H-pyrazolo[4,3-b]pyridin-1-yl)-1-(pyridin-3-yl)ethan-1-one]
1840 nM | O=C1NC[C@@H](Cn2ncc3ncc(-c4ccc(F)c(C(F)F)c4)cc32)O1 [Example 21, (S)-5-[[6-[3-(Difluoromethyl)-4-fluoro-phenyl]pyrazolo[4,3-b]pyridin-1-yl]methyl]oxazolidin-2-one]
187 nM | O=C1NC[C@H](Cn2ncc3ncc(-c4ccc(F)c(C(F)F)c4)cc32)O1 [Example 22, (R)-5-[[6-[3-(Difluoromethyl)-4-fluoro-phenyl]pyrazolo[4,3-b]pyridin-1-yl]methyl]oxazolidin-2-one]
14 nM | CC(=O)Cn1ncc2ncc(-c3ccc(F)c(C(F)F)c3)cc21 [Example 23, 1-[6-[3-(Difluoromethyl)-4-fluoro-phenyl]pyrazolo[4,3-b]pyridin-1-yl]propan-2-one]
15 nM | CC(=O)Cn1ncc2ncc(-c3ccc(F)c(C)c3)cc21 [Example 24, 1-[6-(4-Fluoro-3-methyl-phenyl)pyrazolo[4,3-b]pyridin-1-yl]propan-2-one]
36 nM | CC(=O)Cn1ncc2ncc(-c3ccc(Cl)c(OC(F)F)c3)cc21 [Example 26, 1-[6-[4-Chloro-3-(difluoromethoxy)phenyl]pyrazolo[4,3-b]pyridin-1-yl]propan-2-one]
